Calls of active or inactive are those of the source.
Tests used:
[1] = tested on: T-cell; test: inhibitors of CD8+ T cell–vesicle binding, dose response, mouse 2C CD8+ T cells, flow cytometry (AID 485284); format: functional
[2] = biological target: X-box-binding protein 1 (Homo sapiens, UniProt P17861); format: functional, Cricetulus griseus;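 also: confirmatory dose-response counter-screen serving a CHOP assay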
[3] = biological target: Coagulation factor XII (Homo sapiens, UniProt P00748); test: FXIIa inhibitor potency, concentration-response, biochemical (AID 716); format: functional
[4] = NIH-3T3 fibroblast cytotoxicity, dose response, cytotoxicity control, cell-based, fluorescence, Alamar Blue, secondary assay (AID 2327); format: functional;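 also: NIH-3T3 mouse fibroblasts cultured with fluconazole at 8 µg/mL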
[5] = A cytotoxicity screen of small molecule inhibitors of the PhoP region in Salmonella typhi identified in the primary screen. [Related pubchem assays: 1850, 1864, 1985 ]; format: functional
[6] = C. albicans growth with fluconazole, confirmation, fluorescence, retest (AID 2467); format: functional, cell-based
[7] = inhibitors of intracellular T. cruzi replication, confirmation, NIH3T3 host cells, beta-gal luminescence (AID 2044); format: functional, cell-based;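 also: intracellular parasites grown in NIH/3T3 mouse fibroblasts as host cells; luminescent beta-galactosidase reporter signal from transgenic T. cruzi replicating inside host cells; inhibitors lower the luminescence signal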
[8] = THP-1 cell cytotoxicity, dose response, cytotoxicity control for non-replicating M. tuberculosis project (AID 489025); format: functional
[9] = HepG2 cell cytotoxicity, dose response, cytotoxicity control for non-replicating M. tuberculosis project (AID 489018); format: functional; conditions: Mycobacterium tuberculosis
[10] = cytotoxicity in NIH/3T3 mouse fibroblasts, dose response, cytotoxicity control, cell-based, mouse embryonic fibroblasts, dry powder, set 2 (AID 493247); format: functional; conditions: Fibroblast
[11] = tested on: Trypanosoma cruzi; test: growth inhibition of intracellular Trypanosoma cruzi, dose response, cell-based, plate reader, dry powder, set 3 (AID 493197); format: functional
[12] = Vero E6 cell cytotoxicity, dose response, cytotoxicity control for non-replicating M. tuberculosis project, secondary assay (AID 492998); format: functional, VeroE6; conditions: Vero C1008
[13] = cells; format: functional
[14] = tested on: INS1; test: beta cell apoptosis inhibitors, cytokine rescue, dose response, luminescence, retest (AID 449756); format: functional, cell-based; conditions: Rattus norvegicus;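 also: cell death triggered by IL-1 beta plus TNF-alpha plus IFN-gamma mixture; protective hits raise ATP signal compared with cytokine alone wells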
[15] = cells
[16] = Cytotoxicity screening for potential Inhibitors of Bacterial Capsule Biogenesis. [Related pubchem assays (depositor defined):AID488970]; format: functional

Chain of Coagulation factor XII (P00748 20-372 limits assumed): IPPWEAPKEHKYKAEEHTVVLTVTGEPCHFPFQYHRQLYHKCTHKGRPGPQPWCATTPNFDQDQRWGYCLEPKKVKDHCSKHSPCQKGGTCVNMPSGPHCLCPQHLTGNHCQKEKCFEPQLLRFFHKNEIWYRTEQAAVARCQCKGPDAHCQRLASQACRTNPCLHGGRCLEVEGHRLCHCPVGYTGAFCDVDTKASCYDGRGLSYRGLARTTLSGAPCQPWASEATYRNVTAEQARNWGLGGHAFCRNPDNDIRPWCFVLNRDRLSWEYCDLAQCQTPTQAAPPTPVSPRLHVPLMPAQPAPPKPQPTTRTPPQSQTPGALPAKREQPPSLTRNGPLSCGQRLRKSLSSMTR
Chain of Coagulation factor XII (P00748 373-615 limits assumed): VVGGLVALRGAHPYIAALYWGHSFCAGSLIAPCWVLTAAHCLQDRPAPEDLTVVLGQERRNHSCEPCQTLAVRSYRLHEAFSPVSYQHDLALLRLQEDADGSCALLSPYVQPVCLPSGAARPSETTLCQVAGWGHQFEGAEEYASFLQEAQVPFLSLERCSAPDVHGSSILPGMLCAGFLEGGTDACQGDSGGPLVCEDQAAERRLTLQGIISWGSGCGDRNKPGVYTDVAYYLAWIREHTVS
Chain of X-box-binding protein 1 (P17861 whole entry): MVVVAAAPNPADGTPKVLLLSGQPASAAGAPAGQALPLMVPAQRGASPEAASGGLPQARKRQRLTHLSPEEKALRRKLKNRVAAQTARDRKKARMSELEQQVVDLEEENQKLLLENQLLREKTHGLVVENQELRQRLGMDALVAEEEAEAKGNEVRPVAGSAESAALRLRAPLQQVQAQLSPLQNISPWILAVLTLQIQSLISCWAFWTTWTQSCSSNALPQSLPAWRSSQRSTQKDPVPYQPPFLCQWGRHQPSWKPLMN

With `CCOC(=O)/C=C1\SCC(=O)N1CC(=O)NC1CCCCC1` the EC50 [1] was 7.17 µM (active).

With `O=C(NCc1ccccc1)c1cc(-c2ccncc2)nc2ccc(S(=O)(=O)N3CCOCC3)cc12` the “Absolute IC50 (XBP1)” value [2] was 10 µM.

With `CCOC(=O)c1[nH]c2ccc(OC)cc2c1NC(=O)N1CCOCC1` the IC50 [3] was > 50 µM (inactive).

For `O=C(CCC(=O)Nc1ccc(Cl)cc1Cl)N/N=C/c1ccc([N+](=O)[O-])o1`, the EC50 [4] was 8.66 µM (inconclusive), the EC50 [5] was > 50 µM (active) and the EC50 [6] was 2.3 µM (active). For the same molecule, the EC50 [7] was < 0.1 µM (active), the CC50 [8] was 17.4 µM (active) and the CC50 [9] was 14 µM (active). The AC50 [10] was 11.4 µM (active), the AC50 [11] was < 0.003 µM (active) and the CC50 [12] was > 20 µM (active). For the same molecule, the IC50 [13] was 0.85 µM (active), the AC50 [14] was 15.2 µM (active) and the EC50 [15] was 0.007 µM (active).

With `N=C(N)SCCc1cccc(CCSC(=N)N)c1` the CC50 [16] was 47.9 µM (active).
